Measured values as given in ChEMBL document CHEMBL1909046, “DrugMatrix in vitro pharmacology data”.
*1 amine or outer side, *2 acyl side, *3 side chain or, on linkers, in order; H or OH if unused. Where a SMILES comes first, the peptide text is derived from it. Bridges are numbered along the chain shown (N, C = ends). Roman numbers before positions name the chains, in order. [ ]: non-standard residue; d: D form. Actinocin(1to9) = Cc1c2oc3c(C)ccc(C(=O)[*:2])c3nc-2c(C(=O)[*:1])c(N)c1=O; NMeV = CN[C@H](C(=O)O)C(C)C; Sar = CNCC(=O)O

Experiments:
[1] = molecular target: T1, Alpha-1D adrenergic receptor (Homo sapiens, UniProt P25100); format: cell membranes, HEK293, Membrane; settings: hek293; further: in other assays of this panel Not Active means under 50% inhibition at 10 µM
T1 sequence (P25100 whole entry): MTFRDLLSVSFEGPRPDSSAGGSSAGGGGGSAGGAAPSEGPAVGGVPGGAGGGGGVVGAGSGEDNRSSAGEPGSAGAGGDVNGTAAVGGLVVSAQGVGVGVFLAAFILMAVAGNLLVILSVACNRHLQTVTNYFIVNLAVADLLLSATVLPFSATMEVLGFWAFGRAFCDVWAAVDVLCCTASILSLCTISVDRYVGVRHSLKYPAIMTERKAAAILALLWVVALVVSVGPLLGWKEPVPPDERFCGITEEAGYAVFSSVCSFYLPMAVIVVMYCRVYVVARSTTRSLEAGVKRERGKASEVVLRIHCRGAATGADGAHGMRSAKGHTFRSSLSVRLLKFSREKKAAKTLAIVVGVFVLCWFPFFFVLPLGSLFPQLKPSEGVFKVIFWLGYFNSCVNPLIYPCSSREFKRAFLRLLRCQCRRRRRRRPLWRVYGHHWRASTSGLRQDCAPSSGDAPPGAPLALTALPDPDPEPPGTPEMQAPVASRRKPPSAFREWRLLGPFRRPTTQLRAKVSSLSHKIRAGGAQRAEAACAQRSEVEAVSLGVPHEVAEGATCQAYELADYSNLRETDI

[2] = molecular target: 5-hydroxytryptamine receptor 4 (Cavia porcellus, UniProt O70528); format: cell membranes, Dunkin-Hartley, Striatum, Membrane; further: in other assays of this panel Not Active means under 50% inhibition at 10 µM
Sequence of 5-hydroxytryptamine receptor 4 (O70528 whole entry): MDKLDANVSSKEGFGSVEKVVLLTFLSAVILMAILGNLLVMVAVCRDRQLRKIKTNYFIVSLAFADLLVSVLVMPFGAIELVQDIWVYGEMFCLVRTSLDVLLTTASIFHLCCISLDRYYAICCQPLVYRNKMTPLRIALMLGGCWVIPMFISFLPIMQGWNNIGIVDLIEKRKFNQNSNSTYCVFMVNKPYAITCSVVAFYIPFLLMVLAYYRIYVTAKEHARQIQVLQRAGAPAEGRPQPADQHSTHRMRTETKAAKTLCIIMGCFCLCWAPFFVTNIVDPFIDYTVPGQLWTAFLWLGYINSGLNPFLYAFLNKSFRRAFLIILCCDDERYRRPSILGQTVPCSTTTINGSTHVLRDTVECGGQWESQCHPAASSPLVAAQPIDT

D(3) dopamine receptor = D(3) dopamine receptor (Homo sapiens, UniProt P35462); test: DRUGMATRIX: Dopamine D3 radioligand binding (ligand: [3H] Spiperone); format: cell membranes, CHO, Membrane; settings: cho
Sequence of D(3) dopamine receptor (P35462 whole entry): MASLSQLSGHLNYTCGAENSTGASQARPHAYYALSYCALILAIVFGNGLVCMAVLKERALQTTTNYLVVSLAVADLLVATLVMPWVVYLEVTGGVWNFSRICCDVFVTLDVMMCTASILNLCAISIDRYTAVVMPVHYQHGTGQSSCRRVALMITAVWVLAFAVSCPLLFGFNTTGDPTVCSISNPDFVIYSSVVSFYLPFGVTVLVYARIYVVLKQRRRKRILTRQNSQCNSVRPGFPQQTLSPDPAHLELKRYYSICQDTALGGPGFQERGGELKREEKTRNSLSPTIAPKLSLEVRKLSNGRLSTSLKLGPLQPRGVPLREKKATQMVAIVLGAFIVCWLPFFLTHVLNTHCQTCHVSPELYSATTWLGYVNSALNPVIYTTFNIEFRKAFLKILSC

Cathepsin G = molecular target: T2, Cathepsin G (Homo sapiens, UniProt P08311); format: tissue-based; settings: neutrophil;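 further: inhibition of Cathepsin G enzyme activity, tested on an AMC-conjugated peptide substrate; in other assays of this panel Not Active means under 50% inhibition at 10 µM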
T2 sequence (P08311 whole entry): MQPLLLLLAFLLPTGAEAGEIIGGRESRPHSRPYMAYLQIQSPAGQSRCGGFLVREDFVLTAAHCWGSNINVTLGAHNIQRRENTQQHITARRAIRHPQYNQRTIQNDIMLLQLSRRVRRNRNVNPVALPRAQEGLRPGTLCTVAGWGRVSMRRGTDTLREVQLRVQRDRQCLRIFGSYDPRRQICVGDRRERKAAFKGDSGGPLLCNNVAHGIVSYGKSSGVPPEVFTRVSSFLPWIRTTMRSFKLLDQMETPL

[3] = molecular target: T3, Receptor-type tyrosine-protein phosphatase C (Homo sapiens, UniProt P08575); set-up: species or system Escherichia coli;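 further: inhibition of CD45 enzyme activity measured using DiFMUP as substrate; in other assays of this panel Not Active means under 50% inhibition at 10 µM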
T3 sequence (P08575 whole entry): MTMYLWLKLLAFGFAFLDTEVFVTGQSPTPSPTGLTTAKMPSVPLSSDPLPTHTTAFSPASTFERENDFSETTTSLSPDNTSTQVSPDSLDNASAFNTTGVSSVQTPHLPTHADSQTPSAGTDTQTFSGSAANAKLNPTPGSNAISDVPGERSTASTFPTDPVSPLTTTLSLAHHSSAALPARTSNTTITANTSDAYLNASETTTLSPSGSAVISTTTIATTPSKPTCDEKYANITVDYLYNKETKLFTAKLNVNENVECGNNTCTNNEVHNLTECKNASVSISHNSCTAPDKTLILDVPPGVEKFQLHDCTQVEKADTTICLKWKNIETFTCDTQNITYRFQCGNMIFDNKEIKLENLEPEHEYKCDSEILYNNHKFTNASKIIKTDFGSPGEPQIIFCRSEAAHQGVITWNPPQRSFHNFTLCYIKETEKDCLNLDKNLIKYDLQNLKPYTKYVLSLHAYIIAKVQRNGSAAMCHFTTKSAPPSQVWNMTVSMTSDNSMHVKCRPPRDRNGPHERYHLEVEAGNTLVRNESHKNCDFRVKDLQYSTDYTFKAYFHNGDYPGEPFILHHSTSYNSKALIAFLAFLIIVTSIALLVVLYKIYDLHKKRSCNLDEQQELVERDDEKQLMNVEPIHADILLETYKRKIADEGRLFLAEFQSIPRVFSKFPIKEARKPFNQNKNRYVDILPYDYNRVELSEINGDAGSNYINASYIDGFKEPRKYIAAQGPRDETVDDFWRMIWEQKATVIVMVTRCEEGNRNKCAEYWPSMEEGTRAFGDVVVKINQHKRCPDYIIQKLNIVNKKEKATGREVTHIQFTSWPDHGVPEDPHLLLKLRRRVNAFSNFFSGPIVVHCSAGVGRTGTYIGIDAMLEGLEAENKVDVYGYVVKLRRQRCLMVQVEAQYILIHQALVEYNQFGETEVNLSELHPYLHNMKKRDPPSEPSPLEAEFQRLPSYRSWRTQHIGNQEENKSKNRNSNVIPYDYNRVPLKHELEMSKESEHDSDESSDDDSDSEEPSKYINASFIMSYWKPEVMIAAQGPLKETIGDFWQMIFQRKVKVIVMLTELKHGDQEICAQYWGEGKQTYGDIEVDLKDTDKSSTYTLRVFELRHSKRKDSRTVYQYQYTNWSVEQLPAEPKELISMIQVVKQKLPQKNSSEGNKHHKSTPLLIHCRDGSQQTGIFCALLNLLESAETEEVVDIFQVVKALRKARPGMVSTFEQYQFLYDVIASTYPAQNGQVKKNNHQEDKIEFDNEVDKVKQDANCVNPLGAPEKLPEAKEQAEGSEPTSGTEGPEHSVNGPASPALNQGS

COc1cc2c3cc1Oc1cc(ccc1O)C[C@@H]1c4c(cc(OC)c(O)c4Oc4ccc(cc4)C[C@@H]3N(C)CC2)CC[N+]1(C)C.[Cl-]
Not Active: IC50 [1] | IC50 [2] | IC50 (D(3) dopamine receptor) | IC50 (Cathepsin G) | IC50 [3]

CCC(C)n1ncn(-c2ccc(N3CCN(c4ccc(OCC5COC(Cn6cncn6)(c6ccc(Cl)cc6Cl)O5)cc4)CC3)cc2)c1=O (configuration not stated) [ITRACONAZOLE]
Not Active: IC50 [1] | IC50 [2] | IC50 (D(3) dopamine receptor) | IC50 (Cathepsin G) | IC50 [3]

CADMIUM ACETATE
Not Active: IC50 [1] | Ki [1] | IC50 [2] | Ki [2] | IC50 (D(3) dopamine receptor) | Ki (D(3) dopamine receptor) | IC50 (Cathepsin G) | Ki (Cathepsin G) | IC50 [3] | Ki [3]

C[C@H]1O[C@@H](O[C@H]2[C@@H](O)C[C@H](O[C@H]3[C@@H](O)C[C@H](O[C@H]4CC[C@@]5(C)[C@H](CC[C@@H]6[C@@H]5C[C@@H](O)[C@]5(C)[C@@H](C7=CC(=O)OC7)CC[C@]65O)C4)O[C@@H]3C)O[C@@H]2C)C[C@H](O)[C@@H]1O [DIGOXIN]
Not Active: IC50 [1] | IC50 [2] | IC50 (D(3) dopamine receptor) | IC50 (Cathepsin G) | IC50 [3]

Cc1c2oc3c(C)ccc(C(=O)N[C@@H]4C(=O)N[C@H](C(C)C)C(=O)N5CCC[C@H]5C(=O)N(C)CC(=O)N(C)[C@@H](C(C)C)C(=O)O[C@@H]4C)c3nc-2c(C(=O)N[C@@H]2C(=O)N[C@H](C(C)C)C(=O)N3CCC[C@H]3C(=O)N(C)CC(=O)N(C)[C@@H](C(C)C)C(=O)O[C@@H]2C)c(N)c1=O [DACTINOMYCIN] (I: T[dV]P[Sar][NMeV] / II: T[dV]P[Sar][NMeV]; ester I:1-I:C, II:1-II:C; linker I:N-II:N via Actinocin(1to9))
Not Active: IC50 [1] | IC50 [2] | IC50 (D(3) dopamine receptor) | IC50 (Cathepsin G) | IC50 [3]

C=C(C)C1(O)OC(=O)C=C1OC (configuration not stated) [PENICILLIC ACID]
Not Active: IC50 [1] | IC50 [2] | IC50 (D(3) dopamine receptor) | IC50 (Cathepsin G) | IC50 [3]

CN(Cc1ccc(C(C)(C)C)cc1)Cc1cccc2ccccc12 [BUTENAFINE]
Not Active: IC50 [1] | IC50 [2] | IC50 (D(3) dopamine receptor) | IC50 (Cathepsin G) | IC50 [3]

NC(=O)N1c2ccccc2CCc2ccccc21
Not Active: IC50 [1] | IC50 [2] | IC50 (D(3) dopamine receptor) | IC50 (Cathepsin G) | IC50 [3]

Cc1onc(-c2ccccc2Cl)c1C(=O)N[C@@H]1C(=O)N2[C@@H]1SC(C)(C)[C@@H]2C(=O)O [CLOXACILLIN]
Not Active: IC50 [1] | IC50 [2] | IC50 (D(3) dopamine receptor) | IC50 (Cathepsin G) | IC50 [3]

COc1ccc(C[C@H]2NC[C@H](O)[C@H]2OC(C)=O)cc1 [ANISOMYCIN]
Not Active: IC50 [1] | Ki [1] | IC50 [2] | Ki [2] | IC50 (D(3) dopamine receptor) | Ki (D(3) dopamine receptor) | IC50 (Cathepsin G) | Ki (Cathepsin G) | IC50 [3] | Ki [3]

CCn1cc(C(=O)O)c(=O)c2cc(F)c(N3CCNCC3)cc21 [NORFLOXACIN]
Not Active: IC50 [1] | IC50 [2] | IC50 (D(3) dopamine receptor) | IC50 (Cathepsin G) | IC50 [3]

CCC1(c2ccc(N)cc2)CCC(=O)NC1=O (configuration not stated) [AMINOGLUTETHIMIDE]
Not Active: IC50 [1] | IC50 [2] | IC50 (D(3) dopamine receptor) | IC50 (Cathepsin G) | IC50 [3]

Cc1ccc(N(CC2=NCCN2)c2cccc(O)c2)cc1 [PHENTOLAMINE]
Not Active: IC50 [2] | IC50 (D(3) dopamine receptor) | IC50 (Cathepsin G) | IC50 [3]

CN(C)CCCN1c2ccccc2Sc2ccc(Cl)cc21 [CHLORPROMAZINE]
Not Active: IC50 [2] | IC50 (Cathepsin G) | IC50 [3]
